The source of these data is patent US20010044416A1 (priority 2000, published 2001).

Data set [1] relates to HBsAg-specific antibodies (anti-HBs). Also on record: species or system BALB/c mice. The settings on record: mouse, in vivo, po.
The test system is the same in data set [2]. On the set-up: species or system BALB/c mice. As to conditions: mouse, in vivo.
The subject of data set [3] is HBsAg-specific antibodies. On the set-up: species or system BALB/c mice. The settings on record: mouse, in vivo, po.
The conditions of data set [4]: in vivo; cited from earlier work.

As to “5′-TCCAGGACTTCTCTCAGGTT-3′ [non-CpG ODN #1982]”, in data set [1], the “HBsAg-specific IgG titers, non-CpG ODN versus equivalent dose of CpG ODN” value was “no significant difference”; the “anti-HBs IgG titers in plasma” value is listed as “much higher levels”; the “antibody isotypes (IgG1 Th2-like, IgG2a Th1-like) as indication of Th-bias” value (from here on “antibody isotypes”) is “predominance of IgG1”. Also, in data set [2], the “enhancement of immune responses (anti-HBs) with IM delivery” value is recorded as “not”. In data set [3], the “HBsAg-specific IgG in plasma” value was “now detected”.

In the case of TCCATGACGTTCCTGACGTT [CpG ODN #1826], in data set [1], the “anti-HBs IgG titers in plasma” value is “much higher levels” and the “antibody isotypes” value is listed as “equally mixed Th1/Th2 response”. Besides, in data set [2], the “enhancement of immune responses (anti-HBs) with IM delivery” value is listed as “enhancement of immune responses”. The “HBsAg-specific IgG in plasma” value in data set [3] is “now detected”.

In the case of Cholera toxin [CT], in data set [1], the “anti-HBs IgG titers in plasma” value is recorded as “much higher levels” and the “antibody isotypes” value is listed as “predominance of IgG1”. Besides, the “dose causing severe diarrhea” value in data set [4] was 1 to 5 µg.
